Here are results for 36 sequences from the OligoGym collection.

After the bases stand the sugars from the 5' end (letter, count) and the backbone: PS all phosphorothioate, else s phosphorothioate and o phosphodiester by linkage. Methylation of C is not given here. e = 2'-O-(2-methoxyethyl) (MOE); k = constrained ethyl (cEt); d = 2'-deoxy (DNA); m = 2'-O-methyl

The data set concerns the target HSD17B13. To be noted: ASO, HepaRG.

In turn, ATAAAAATTGGCCTCC (sugars k3 d10 k3, PS) came in with a target mRNA inhibition (1 µM) of 41%. Still for that read-out and setting: the result for GATATTATGTTCTTGG (sugars k3 d10 k3, PS) reads 59%; that for “TATAGTTATCTTCTCA (sugars kkdddddddddkekek, PS)”, 45%; that for “GCTAGTGCCAAACCAA (sugars kkdddddddddkekek, PS)”, 62%. Same read-out and setting: the result for “AACAUCTCTGGGACCA (sugars k3 d1 m1 d8 k3, PS)” reads 64%; that for CCAACGCAACAGTTTA (sugars k3 d10 k3, PS), 77%.

In turn, AATTTATTGGTATGGT (sugars k3 d10 k3, PS) gave a target mRNA inhibition (1 µM) of 30%. The same measure, in the same setting: to AGTTCTGATGTCAGAC (sugars k3 d10 k3, PS) belongs 40%; to CAATAGTACTATAGTA (sugars k3 d10 k3, PS), 14%; to TGAGAGAACTTATACA (sugars k3 d10 k3, PS), 32%. Still for that read-out and setting: to GATGAGAGTCTTTCTT (sugars k3 d10 k3, PS) belongs 26%; to “GTAGCTTTTGTCCACC (sugars k3 d1 m1 d8 k3, PS)”, 64%. With CCTTACTAAGGAAATT (sugars k3 d10 k3, PS), the target mRNA inhibition (1 µM) is 28%. With “GCCTTGAATAGCAAGC (sugars kkdddddddddkekek, PS)”, the target mRNA inhibition (1 µM) is 16%.

In the case of GATTGAGTTCTCCACT (sugars k3 d10 k3, PS), the target mRNA inhibition (1 µM) was found to be 45%. Same read-out and setting: the result for CCTGAAAAGCCCTATT (sugars k3 d10 k3, PS) reads 0%; that for “TTGAATAGCAAGCCAA (sugars k3 d9 k3 e1, PS)”, 33%. Same read-out and setting: to AGATGGTAAGGAGTAG (sugars k3 d10 k3, PS) belongs 26%. Still for that read-out and setting: the result for “TCTAAGTTAGCCCCCA (sugars k3 d1 m1 d8 k3, PS)” reads 7%. As for “GAAACTTGATCTCTTA (sugars k3 d9 k3 e1, PS)”, the target mRNA inhibition was 0% (0.02 µM); 11% (0.078 µM); 60% (0.313 µM); 79% (1 µM); 82% (1.25 µM); 90% (5 µM). Where the note is “1 µM”, “AATAATAGCTCTATTG (sugars kkdddddddddkekek, PS)” gave a target mRNA inhibition of 2%.

On to AATACTAATGTCCAAG (sugars k3 d10 k3, PS), for which, where the note is “1 µM”, the target mRNA inhibition came out at 65%. As for “GATTGGAATGCTACTT (sugars kkkddddkddddkkke, PS)”, for the setting “1 µM”, the target mRNA inhibition worked out at 59%. For the sequence ATCAGACTTCTTACGA (sugars k3 d10 k3, PS), the target mRNA inhibition (1 µM) turned out to be 45%.

Sequence CCAATTATGAATCTGC (sugars k3 d10 k3, PS) returned a target mRNA inhibition (1 µM) of 61%. For the sequence AAAAATTGGTTTCGAA (sugars k3 d10 k3, PS), the target mRNA inhibition (1 µM) was 13%.

The sequence CTTTTGTCCACCTTTA (sugars k3 d10 k3, PS) returned a target mRNA inhibition (1 µM) of 76%. As to CTTACCTTGTGCTTGG (sugars k3 d10 k3, PS), under “1 µM”, the target mRNA inhibition was found to be 34%. The same measure, in the same setting: to AAAGTGTCCTCGATCC (sugars k3 d10 k3, PS) belongs 36%; to “AGTTAGTATAGTTATC (sugars k3 d1 m1 d8 k3, PS)”, 42%. On the same count and under the same terms, the result for GCAGCTAAAATCCAAT (sugars k3 d10 k3, PS) reads 70%; that for GCTAAACCCTGGAGCA (sugars k3 d10 k3, PS), 5%; that for “AATGCTACTTGAACAG (sugars kkdddddddddkekek, PS)”, 39%.

In turn, TCCATTGAATCTTCAA (sugars k3 d10 k3, PS) yielded a target mRNA inhibition (1 µM) of 57%. Still for that read-out and setting: the result for GTAATATTCATAGTTC (sugars k3 d10 k3, PS) reads 49%. On to TTATCATACCACATAC (sugars k3 d10 k3, PS), for which the target mRNA inhibition (1 µM) is 19%.
